Reference: US20060177444A1, “Concomitant drug as therapeutic agent for inflammatory bowel disease” (priority 2003, published 2006)

System: male Balb/c mice
Assay: TNBS-induced experimental colitis in mice, lesion length of the colon
Format: in vivo
Conditions: for improvement of colitis compared with combination administration, in words: single administration at a dose higher than that in the combination administration
Method: A total of 0.08 ml of a 1:1 (v/v) mixture of 10% picrylsulfonic acid (TNBS) solution and ethanol was administered to anesthetized male Balb/c mice (Charles River Japan, Inc., Yokohama, Japan) according to previous reports (J Exp Med 2001; 193: p 827-38, J Exp Med 2001; 193: p 25-34) to thereby induce experimental colitis. The colon (large intestine) was sampled two days later, and the length of a flare site accompanied with ulcer or hyperplasia near to the lumen was measured and was defined as the lesion length. The inhibition (%) was calculated from the average lesion length of a treated group, compared with the average lesion length of a control group. The test compound suspended in a 0.5% solution of methylcellulose was orally administered to the mice via sonde once a day from two days before the beginning of colitis induction.

Row | SMILES | Inhibition (%) of average lesion length (Compound 1 0.3 mg/kg/day, oral, once a day) | Inhibition (%) of average lesion length (Compound 1 1 mg/kg/day, oral, once a day) | Inhibition (%) of average lesion length (Compound 1 3 mg/kg/day, oral, once a day (Table 2)) | Inhibition (%) of average lesion length (Compound 1 10 mg/kg/day, oral, once a day) | Inhibiton (%) of average lesion length (Table 5: Compound 1 3 mg/kg/day alone) | improvement of colitis, in words (single administration) | improvement of colitis compared with combination administration, in words | Inhibition (%) of average lesion length (Rosiglitazone 1 mg/kg/day, oral, once a day, single administration) | Inhibition (%) of average lesion length (Rosiglitazone 10 mg/kg/day, oral, once a day, single administration) | Inhibiton (%) of average lesion length (Sulfasalazine 100 mg/kg/day, oral, single administration (Table 3)) | Inhibiton (%) of average lesion length (Sulfasalazine 300 mg/kg/day, oral, single administration) | Inhibiton (%) of average lesion length (Table 5: Sulfasalazine 100 mg/kg/day alone)
1 | CC(C)O[C@@H](Cc1cccc(CNC(=O)OCc2cccc(OC(F)(F)F)c2)c1)C(=O)O [Compound 1, 3-(3-{[3-trifluoromethoxybenzyloxycarbonylamino]methyl}phenyl)-2(S)-isopropoxypropanoic acid] | 8% | 21% | 38% | 34% | 29% | partially improves colitis | improves colitis less effectively | – | – | – | – | –
2 | CN(CCOc1ccc(CC2SC(=O)NC2=O)cc1)c1ccccn1 (centres unmarked) [Rosiglitazone, rosiglitazone] | – | – | – | – | – | – | – | 23% | 37% | – | – | –
3 | O=C(O)c1cc(N=Nc2ccc(S(=O)(=O)Nc3ccccn3)cc2)ccc1O [Sulfasalazine, 2-hydroxy-5-[[4-[(2-pyridinylamino)sulfonyl]phenyl]-azo]benzoic acid] | – | – | – | – | – | partially improves colitis | improves colitis less effectively | – | – | 40% | 35% | 43%
